Experimental data published in publication PMC10314922, “Fluorescence lifetime FRET assay for live-cell high-throughput screening of the cardiac SERCA pump yields multiple classes of small-molecule allosteric modulators” (Scientific Reports, 2023).
Where “and” joins values, the source holds several entries; their conditions need not be identical. Equal entries are not always repeated. Entries after “also recorded” stand apart in the source; their conditions may differ.

How the values were obtained:
[1] = biological target: T1, human two-color SERCA2a (2CS) biosensor (Homo sapiens, UniProt P16615, INS508[…]); test: FRET concentration response curves (FLT-FRET) with the 2CS biosensor in live HEK cells; assay type: cell-based
T1 construct: expressed in transfected cells
Excerpt: A two-color intramolecular human SERCA2a (2CS) biosensor, based on human cardiac SERCA2a fused to green fluorescent protein (eGFP) and red fluorescent protein (tagRFP) was developed to detect structural changes that are related to the functional changes of SERCA[20],[22],[25]. Briefly, tagRFP was genetically fused to the N-terminus of SERCA (A-domain) and eGFP was inserted as an intrasequence tag before residue 509 in the nucleotide-binding domain (N-domain)[60],[61]. Donor-only and acceptor-only (1CS) biosensors were created in a similar manner as the 2CS biosensor but with the construct containing either only eGFP or only tag-RFP, respectively. […] A null-biosensor construct consisting of eGFP and tagRFP connected by a 32-residue unstructured flexible linker peptide (G32R) was created as described previously[23],[25]. All constructs were cloned into expression vectors containing the genes for antibiotic resistance to G418, puromycin, or blasticidin.
Stable cell lines were generated using either human embryonic kidney (HEK) HEK293 (ATCC, Manassas, VA) or HEK293-6E (National Research Council, Canada) cells. Briefly, cells were transiently transfected with 2CS, 1CS, or G32R null-biosensor plasmids using Lipofecatime 3000 or 293fectin (Thermo Fisher Scientific). Flow cytometry was used to select and enrich for the population of cells expressing respective biosensors. Stable HEK293 cell lines were maintained in phenol red-free DMEM media (Gibco, Waltham, MA) supplemented with 2 mM GlutaMAX (Gibco, Waltham, MA), 10% fetal bovine serum (FBS) (Atlanta Biologicals, Lawrenceville, GA), 1 IU/mL penicillin/streptomycin (Gibco, Waltham, MA), and 250 μg/mL G418 (Fisher Scientific). Stable HEK293-6E cell lines were maintained in F17 media (Sigma Aldrich) supplemented with Kolliphor p188 (Sigma Aldrich, St. Louis, MO), […] GlutaMAX, and either 1 μg/mL puromycin (Invitrogen, Carlsbad, CA) or 2 μg/mL blasticidin (Goldbio) as a selection antibiotic. All cell lines were grown at 37 °C with 5% CO2.
FRET CRC assay plates (0.78–100 μM compound range) with at least ten different compound concentrations were made by adding the appropriate volume of compound or DMSO into black 384 well plates (Greiner Bio-One) using a Mosquito HV (SPTLabTech, United Kingdom). Subsequent Ca^2+-ATPase activity and Ca^2+-transport CRC assay plates (0–50 μM compound range) with repurchased compounds were made in a similar manner using with the Echo 550 (Beckman Coulter) using either 384 well transparent plates (Greiner Bio-One) or black-walled plates with transparent bottoms (Greiner Bio-One), respectively.
On each day of screening, cells were harvested, washed three times with PBS, and centrifuged at 300 g for 5 min. Cells were filtered using a 70 µm cell strainer and diluted to 1–2 × 10^6 cells/mL. Cell concentration and viability were assessed using the Cell countess (Invitrogen) and trypan blue assay. During assays, cells were constantly and gently stirred using a magnetic stir bar at room temperature, keeping the cells in suspension and evenly distributed to avoid clumping. HEK 293-cells expressing 2CS were dispensed at 5 μL or […] per well into assay plates (dispensed into 40 assay plates, each containing 1536 wells) pre-plated with compounds (from a DIVERset 50,000 compound library) using a Multdrop Combi liquid dispenser (Thermo Fisher Scientific, Pittsburg, PA) and sealed until needed. Because the kinetics of membrane permeability, diffusion, and/or binding of the compound to live cells may be compound-dependent, we tested two incubation times, 20 min and 120 min, for the FRET CRC. […] Plates containing eight-point concentration curves of three tool compounds (known SERCA effectors thapsigargin, BHQ, and CPA)[22] were used as positive controls for biosensor function and performance prior to running the full-scale FRET-HTS assay. […]

[2] = biological target: T2, SERCA2a (Sus scrofa, UniProt P11607); test: Oxalate-supported Fluo-4 Ca2+-uptake (Ca2+-transport) assay in pig cardiac SR (pCSR) vesicles; assay type: biochemical; settings: for Ca2+-Uptake C10: concentration yielding 10% effect; for CR (coupling ratio) VU/VA: maximum Ca2+-uptake rate / Ca2+-ATPase rate at [Ca2+]MAX, DMSO control = 0.66; for Decrease (inhibition) of Ca2+-uptake at [Ca2+]MAX: size of decrease; for Ca2+-Uptake ΔFMID / Ca2+-Uptake ΔFMAX: maximal compound effect vs DMSO control, pCSR; for Effect on Ca2+-uptake (category, Fig. 4A): activators, categories activate / uncouple / inhibit; for Increase in Ca2+-uptake: over [Ca2+]MAX and [Ca2+]MID
T2 construct: Cardiac SR vesicles were isolated from fresh porcine left ventricular tissue using differential centrifugation; from tissue; host or cells: porcine left ventricular tissue (cardiac SR vesicles)
Experimental: (§1) Cardiac SR vesicles were isolated from fresh porcine left ventricular tissue using differential centrifugation of the homogenized tissue as previously described. The SR vesicles were flash-frozen and stored at − 80 °C until needed. The SERCA concentration in the ER preparations purified from HEK cell homogenate is at least 10 times less than in purified porcine cardiac SR[20], but there was sufficient expression of the fluorescent SERCA2a biosensor in HEK cells to detect FRET with high precision by FLT[22],[23],[26].
Ca^2+-transport assays were performed with similar porcine SR samples as in the Ca^2+-ATPase assays described above. The compound effect on the Ca^2+-transport activity of SERCA2a was determined using an oxalate-supported assay in which the change in fluorescence in a Ca^2+-sensitive dye, Fluor-4, was determined as previously described. A buffered solution containing 50 mM MOPS (pH 7.0), 100 mM KCl, 30 mg/mL sucrose, 1 mM EGTA, 10 mM potassium oxalate, 2 µM Fluo-4, 30 µg/mL porcine cardiac SR vesicles, CaCl2 calculated to reach the free [Ca^2+] (pCa 8.0, 6.2, and 5.4), and compound (0.048 to 50 μM) was dispensed into 384-well black walled, transparent bottomed plates (Greiner Bio-One) containing the tested small molecule and incubated at 22℃ for 20 min while covered and protected from light. To start the reaction, MgATP was added to a final concentration of 5 mM, and the decrease in 485-nm excited fluorescence of Fluo-4 was monitored at 520 nm for 15 min using a FLIPR Tetra (Molecular Devices, San Jose, CA).
(§2) SERCA2a activity, F (rate of ATP hydrolysis or Ca^2+ uptake), was measured at varying pCa and varying compound concentration. F measured at [Ca^2+]MAX (saturating, pCa 5.4) or [Ca^2+]MID (subsaturating, midpoint, pCa 6.2) was corrected by subtracting the basal rate at pCa 8.0) and the % effect due to compound was reported. Concentration response curves (CRC) were fitted using the Hill function to determine VMAX (the activity at saturating [compound]), and EC50, the compound concentration at 50% effect.

[3] = biological target: T2, SERCA2a; test: NADH-linked Ca2+-ATPase activity assay in pig cardiac SR (pCSR) vesicles; assay type: biochemical; settings: for Ca2+-ATPase ΔFMAX / Ca2+-ATPase ΔFMID: maximal compound effect vs DMSO control, pCSR; for Effect on Ca2+-ATPase activity (category, Fig. 4A): activators, categories activate / uncouple / inhibit
Experimental: as §1
Functional assays were performed using porcine cardiac SR (pCSR) vesicles. An enzyme-coupled, NADH-linked ATPase assay was used to measure SERCA ATPase activity in 384-well microplates. Each well contained 50 mM MOPS (pH 7.0), 100 mM KCl, 1 mM EGTA, 0.2 mM NADH, 1 mM phosphoenol pyruvate, 10 IU/mL of pyruvate kinase, 10 IU/mL of lactate dehydrogenase, 7 µM of the calcium ionophore A23187 (Sigma), and CaCl2 was added to set free [Ca^2+] to three different concentrations. Ca^2+-ATPase activity was measured at three [Ca^2+]: [Ca^2+]MAX (saturating, pCa 5.4), [Ca^2+]MID (subsaturating, midpoint, pCa 6.2), and [Ca^2+]BAS (basal non-activating, pCa 8.0). 10 μg/mL of SR vesicle, calcium, compound (0.048 to 50 μM), and assay mix were incubated for 20 min at room temperature before measurement of functional assays with each of the 18 hit compounds, because a shorter incubation time than the FRET live-cell assays achieved optimal responses. The assay was started upon the addition of MgATP, at a final concentration of 5 mM (total volume to 80 μL), and absorbance was read at 340 nm in a SpectraMax Plus^384 microplate spectrophotometer (Molecular Devices, Sunnyvale, CA).
as §2

[4] = [Ca2+]MAX (pCa5.4), concentration yielding 10% effect
[5] = [Ca2+]MID (pCa6.2), concentration yielding 10% effect

T2 sequence (P11607 1-997 isoform P11607-2): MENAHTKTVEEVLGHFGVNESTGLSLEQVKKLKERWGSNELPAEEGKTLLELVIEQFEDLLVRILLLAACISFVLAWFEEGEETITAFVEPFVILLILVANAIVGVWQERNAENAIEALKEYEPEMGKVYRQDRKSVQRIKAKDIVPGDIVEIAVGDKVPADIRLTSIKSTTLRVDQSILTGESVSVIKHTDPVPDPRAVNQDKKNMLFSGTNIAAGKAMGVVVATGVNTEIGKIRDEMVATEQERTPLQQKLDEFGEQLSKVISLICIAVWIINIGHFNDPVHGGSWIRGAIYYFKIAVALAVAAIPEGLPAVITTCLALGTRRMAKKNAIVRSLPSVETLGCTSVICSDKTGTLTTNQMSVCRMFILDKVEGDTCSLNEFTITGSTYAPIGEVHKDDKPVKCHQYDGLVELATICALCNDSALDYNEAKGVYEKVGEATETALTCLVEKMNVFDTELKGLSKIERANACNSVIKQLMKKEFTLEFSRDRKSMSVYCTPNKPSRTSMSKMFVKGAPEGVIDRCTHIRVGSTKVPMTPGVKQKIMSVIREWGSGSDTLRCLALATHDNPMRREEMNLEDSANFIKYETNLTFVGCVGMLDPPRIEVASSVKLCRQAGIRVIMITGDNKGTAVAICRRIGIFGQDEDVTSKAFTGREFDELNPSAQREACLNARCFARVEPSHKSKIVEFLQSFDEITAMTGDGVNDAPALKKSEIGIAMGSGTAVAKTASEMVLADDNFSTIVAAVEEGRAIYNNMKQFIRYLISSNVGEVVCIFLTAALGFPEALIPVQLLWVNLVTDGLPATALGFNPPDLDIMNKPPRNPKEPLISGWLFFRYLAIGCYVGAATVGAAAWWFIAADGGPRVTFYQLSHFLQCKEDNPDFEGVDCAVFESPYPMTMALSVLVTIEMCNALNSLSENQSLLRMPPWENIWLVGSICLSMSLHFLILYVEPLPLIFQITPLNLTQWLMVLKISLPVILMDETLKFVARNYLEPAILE
T1 sequence (P16615 other isoform, or with tags, fused parts or gaps with the stated changes): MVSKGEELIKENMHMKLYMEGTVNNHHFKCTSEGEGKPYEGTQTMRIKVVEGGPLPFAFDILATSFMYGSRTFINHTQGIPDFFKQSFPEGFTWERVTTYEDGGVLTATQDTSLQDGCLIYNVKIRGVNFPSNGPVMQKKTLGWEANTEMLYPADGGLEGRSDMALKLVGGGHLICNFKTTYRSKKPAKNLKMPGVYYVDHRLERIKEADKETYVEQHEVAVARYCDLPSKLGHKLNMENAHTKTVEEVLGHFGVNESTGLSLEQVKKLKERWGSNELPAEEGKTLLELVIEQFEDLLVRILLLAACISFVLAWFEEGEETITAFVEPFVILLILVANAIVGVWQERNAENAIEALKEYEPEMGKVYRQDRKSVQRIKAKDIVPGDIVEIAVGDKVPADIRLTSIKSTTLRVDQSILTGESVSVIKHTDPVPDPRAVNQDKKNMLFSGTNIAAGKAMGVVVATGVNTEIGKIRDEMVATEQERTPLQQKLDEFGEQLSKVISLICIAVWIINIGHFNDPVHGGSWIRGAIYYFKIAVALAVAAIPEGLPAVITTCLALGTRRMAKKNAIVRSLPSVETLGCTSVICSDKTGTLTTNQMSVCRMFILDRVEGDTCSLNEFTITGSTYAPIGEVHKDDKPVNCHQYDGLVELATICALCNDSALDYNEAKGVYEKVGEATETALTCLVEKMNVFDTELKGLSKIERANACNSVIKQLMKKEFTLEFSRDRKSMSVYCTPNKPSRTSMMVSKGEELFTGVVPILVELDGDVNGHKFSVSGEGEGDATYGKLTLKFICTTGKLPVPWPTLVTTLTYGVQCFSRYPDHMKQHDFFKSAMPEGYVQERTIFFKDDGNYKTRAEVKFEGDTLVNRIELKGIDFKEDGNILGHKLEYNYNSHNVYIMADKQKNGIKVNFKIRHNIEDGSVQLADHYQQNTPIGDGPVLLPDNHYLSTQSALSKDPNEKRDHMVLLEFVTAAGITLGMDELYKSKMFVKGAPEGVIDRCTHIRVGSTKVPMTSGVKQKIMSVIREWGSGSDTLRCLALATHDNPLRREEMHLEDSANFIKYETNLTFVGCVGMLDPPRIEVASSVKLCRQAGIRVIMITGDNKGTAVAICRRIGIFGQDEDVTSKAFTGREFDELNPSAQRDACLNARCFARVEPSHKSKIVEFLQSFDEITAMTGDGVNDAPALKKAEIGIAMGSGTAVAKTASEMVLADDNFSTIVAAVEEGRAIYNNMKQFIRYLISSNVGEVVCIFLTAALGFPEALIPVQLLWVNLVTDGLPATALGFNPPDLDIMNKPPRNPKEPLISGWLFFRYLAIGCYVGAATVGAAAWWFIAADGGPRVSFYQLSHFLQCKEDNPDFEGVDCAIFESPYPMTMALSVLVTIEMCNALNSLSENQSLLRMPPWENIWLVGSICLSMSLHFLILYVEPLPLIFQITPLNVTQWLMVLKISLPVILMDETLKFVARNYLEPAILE

Row | SMILES | Ca2+-Uptake C10 ([2]; [Ca2+]MAX (pCa5.4)) | Ca2+-Uptake C10 ([2]; [Ca2+]MID (pCa6.2)) | CR (coupling ratio) VU/VA [2] | Ca2+-ATPase C10 [3, 4] | Ca2+-ATPase C10 [3, 5] | Ca2+-Uptake ΔFMID ([2]; [Ca2+]MID (pCa6.2)) | Effect on Ca2+-uptake (category, Fig. 4A) [2] | Ca2+-ATPase ΔFMAX ([3]; [Ca2+]MAX (pCa5.4)) | Ca2+-ATPase ΔFMID ([3]; [Ca2+]MID (pCa6.2)) | Effect on Ca2+-ATPase activity (category, Fig. 4A) [3] | Ca2+-Uptake ΔFMAX ([2]; [Ca2+]MAX (pCa5.4)) | EC50 ([3]; [Ca2+]MAX (pCa5.4)) | EC50 ([3]; [Ca2+]MID (pCa6.2)) | other results
1 | CCc1cnc(N2CC[C@@H](c3ccc4ccccc4c3)[C@H](O)C2)nc1 (relative stereo) [Compound 16, (3S*,4S*)-1-(5-ethylpyrimidin-2-yl)-4-(2-naphthyl)piperidin-3-ol] | 1.2 µM | 4.2 µM | 0.22 | 0.5 µM | 4.7 µM | – | – | – | – | – | – | – | – | EC50 [1]: 5.6 ± 0.3 µM; Inhibition of Ca2+-uptake (class) ([2]; strong / moderate / mild): M → S; also recorded: moderate-to-strong
2 | Cc1cnc(C)c(N2CCN(C(=O)c3cc(COc4ccc5ncccc5c4)on3)CC2)n1 [Compound 1, 6-[(3-{[4-(3,6-dimethyl-2-pyrazinyl)-1-piperazinyl]carbonyl}-5-isoxazolyl)methoxy]quinoline] | 50 µM | – | 0.49 | – | – | 2% and 2 ± 1.0% | inhibit | 8 ± 6.3% | 8 ± 5.8% | activate | – | – | – | Decrease (inhibition) of Ca2+-uptake at [Ca2+]MAX [2]: 10%; Increase in Ca2+-ATPase activity [3]: 10–25%
3 | c1ccc(-c2cc(CN3CCN(c4ncnc5ccccc45)CC3)on2)cc1 [Compound 4, 4-{4-[(3-phenyl-5-isoxazolyl)methyl]-1-piperazinyl}quinazoline] | – | 47 µM | 0.51 | 50.0 µM | 39.2 µM | 11% and 11 ± 2.7% | uncouple | 10 ± 5.3% | 11 ± 6.1% | activate | 0.5% and 0.5 ± 3.2% | 15 ± 7.2 µM | – | Increase in Ca2+-uptake [2]: 0.5–10%
4 | O=C(c1ccc(-c2ccc(O)cc2)nc1)N1CCC(CCc2ccccc2)CC1 [Compound 6, 4-(5-{[4-(2-phenylethyl)piperidin-1-yl]carbonyl}pyridin-2-yl)phenol] | 15 µM and 15.1 µM | 4 µM and 4.2 µM | 0.48 | 9.7 µM | 8.7 µM | 17% and 17 ± 1.4% | inhibit | 25% and 25 ± 6.3% | 30% and 30 ± 10% | activate | – | – | 11.1 ± 1.5 µM | EC50 ([2]; [Ca2+]MAX (pCa5.4)): 16 ± 1.2 µM; Decrease (inhibition) of Ca2+-uptake at [Ca2+]MAX [2]: 21%; EC50 ([2]; [Ca2+]MID (pCa6.2)): 2.9 ± 1 µM; Increase in Ca2+-ATPase activity [3]: 10–25%
5 | CCn1nc(C)c(CN2CCCC(Nc3ccc(C(C)C)cc3)C2)c1C (stereo not drawn) [Compound 7, 1-[(1-ethyl-3,5-dimethyl-1H-pyrazol-4-yl)methyl]-N-(4-isopropylphenyl)-3-piperidinamine] | 14 µM | 21 µM and 20.6 µM | 0.74 | 25 µM | – | 19% and 19 ± 9.8% | activate | 14% and 14 ± 2% | 7% and 7 ± 3% | activate | 24% and 24 ± 10% | – | – | –
6 | COc1ccc(C(=O)C2CCCN(Cc3nc(-c4ccc(F)cc4)cs3)C2)c(OC)c1 (stereo not drawn) [Compound 8, (2,4-dimethoxyphenyl)(1-{[4-(4-fluorophenyl)-1,3-thiazol-2-yl]methyl}-3-piperidinyl)methanone] | 25 µM | – | 0.4 | 4.3 µM | 7.8 µM | 7% and 7 ± 3.0% | uncouple | 49% and 49 ± 4.8% | 31% and 31 ± 14% | activate | 10% and 10 ± 6.5% | 8.3 ± 0.9 µM | 10 ± 1.9 µM | Increase in Ca2+-uptake [2]: 0.5–10%; Ca2+-ATPase C10 ([3]; [Ca2+]MAX): 4.3 µM
7 | OCC1(Cc2ccccc2F)CCCN(Cc2cc3c(cc2Cl)OCO3)C1 (stereo not drawn) [Compound 12, [1-[(6-chloro-1,3-benzodioxol-5-yl)methyl]-3-(2-fluorobenzyl)-3-piperidinyl]methanol] | 0.4 µM | 0.8 µM | – | 1.0 µM | 1.0 µM | – | – | – | – | – | – | 3.8 ± 0.3 µM | 4.2 ± 0.4 µM | EC50 ([2]; [Ca2+]MAX (pCa5.4)): 1.8 ± 0.1 µM; EC50 ([2]; [Ca2+]MID (pCa6.2)): 3.2 ± 0.1 µM
